What all share (format): cell-based
In data set [1] the test system is Zluc cells (Huh-7-derived cell line). The data set is described as follows: Cytotoxicity evaluation, CellTiter-Blue Cell Viability Assay. To be noted: read-out: HCV Replicon CC50. The procedure:
(§1) For cytotoxicity evaluation, Zluc cells were treated with compound as described above, and cell viability was monitored using the CellTiter-Blue Cell Viability Assay (Promega) by adding 20 μL of the assay solution to each well. The plates were then incubated at 37° C./5% CO2 for at least 3 hours.

For data set [2], the system named is HCV genotype 1b replicon. The data set can be described thus: microbe, parasite or virus in culture. To be noted: read-out: HCV Replicon EC50. The method, then:
Huh-7-derived cell line (Zluc) that harbors an HCV genotype 1b replicon and a luciferase reporter gene was grown in Dulbecco's Modified Eagle Medium (DMEM) supplemented with 10% fetal bovine serum, 2 mM GlutaMAX, 1% MEM nonessential amino acids, 100 IU/mL penicillin, 100 μg/mL streptomycin, and 0.5 mg/mL Geneticin® (G418). For dose response testing the cells were seeded in 96-well plates at 7.5×10^3 cells per well in a volume of 50 μL, and incubated at 37° C./5% CO2. Drug solutions were made up freshly in Huh-7 media as 2× stocks. Ten additional 5-fold dilutions were prepared from these stocks in DMEM without G418. At least three hours after Zluc cells were seeded, drug treatment was initiated by adding 50 μL of drug dilutions to the plates in duplicate. […] Cells were then incubated at 37° C./5% CO2. Alternatively compounds were tested at two concentrations (10 nM and 100 nM). […] For this, media was removed from the plates via gentle tapping. Fifty microliters of ONE-glo luciferase assay reagent was added to each well. […] The EC50 values were calculated from dose response curves from the resulting best-fit equations determined by Microsoft Excel and XLfit 4.1 software.

The nature of data set [3]: Cytotoxicity evaluation, CellTiter-Blue Cell Viability Assay. The conditions noted are these: human, Zluc cells (Huh-7-derived cell line), read-out: HCV Replicon CC50. The method, then: as §1
Where [4] appears, read: Zluc cells, HCV genotype 1b replicon, luciferase, 72 hours of incubation.

Where two headings read alike, the source gives them in different places. Some results are limits rather than exact numbers.

The CC50 is the concentration that lowers cell viability or growth by half. In general, EC50 refers to the concentration needed to bring the measured effect to its halfway point. As for `CCOC(=O)OC(C)OP(=O)(N[C@@H](C)C(=O)OC(C)C)OC[C@H]1O[C@@H](n2cnc3c(OC)nc(N)nc32)[C@](C)(F)[C@@H]1O` (single isomer, unassigned) [Compound 16], the CC50 in data set [1] is more than 50 µM. The EC50 in data set [2] (setting [4]) was less than 0.1 µM.

On to `CCOC(=O)OC(C)OP(=O)(N[C@@H](C)C(=O)OC(C)C)OC[C@H]1O[C@@H](n2cnc3c(OC)nc(N)nc32)[C@](C)(F)[C@@H]1O` (single isomer, unassigned) [Compound 17], for which the CC50 in data set [1] was more than 50 µM. The EC50 in data set [2] (setting [4]) is less than 0.1 µM.

For `CCNC(=O)OCOP(=O)(N[C@H](C(=O)OCC)C(C)(C)C)OC[C@H]1O[C@@H](n2cnc3c(OCC)nc(N)nc32)[C@](C)(F)[C@@H]1O` (single isomer, unassigned) [Compound 21], the CC50 in data set [3] was more than 50 µM. In addition, the EC50 in data set [2] (Hepatitis C virus, 72 h) fell in the range of 1 to 10 µM.

Turning to `CCNC(=O)OCOP(=O)(N[C@H](C(=O)OCC)C(C)(C)C)OC[C@H]1O[C@@H](n2cnc3c(OCC)nc(N)nc32)[C@](C)(F)[C@@H]1O` (single isomer, unassigned) [Compound 22], the CC50 in data set [3] is more than 50 µM. Moreover, the EC50 in data set [2] (Hepatitis C virus, 72 h) was in the range of 1 to 10 µM.

Turning to `C[C@@]1(O)[C@H](O)[C@@H](COP(=O)(O)NCc2ccccc2)O[C@H]1n1cnc2c(=O)[nH]c(N)nc21` [Compound 1], the CC50 in data set [3] is more than 50 µM. Further, the EC50 in data set [2] (Hepatitis C virus, 72 h) fell in the range of 0.1 to 1 µM.

As to `CC(C)(C)C(=O)OCOP(=O)(NCc1ccccc1)OC[C@H]1O[C@@H](n2cnc3c(=O)[nH]c(N)nc32)[C@](C)(O)[C@@H]1O` (stereo partly drawn) [Compound 2], in data set [3], the CC50 is more than 50 µM. The EC50 in data set [2] (Hepatitis C virus, 72 h) was less than 0.1 µM.

On to `COc1nc(N)nc2c1ncn2[C@@H]1O[C@H](COP(=O)(NCc2ccccc2)OC(OC(=O)OC(C)C)C(C)C)[C@@H](O)[C@@]1(C)O` (stereo partly drawn) [Compound 6], for which the CC50 in data set [3] was less than 50 µM. In addition, in data set [2] (Hepatitis C virus, 72 h), the EC50 was less than 0.1 µM.

In the case of `COc1nc(N)nc2c1ncn2[C@@H]1O[C@H](COP(=O)(N[C@@H](CC(C)C)C(=O)OC(C)C)OCOC(=O)OC(C)C)[C@@H](O)[C@@]1(C)O` (stereo partly drawn) [Compound 7], the CC50 in data set [3] was more than 50 µM. Moreover, in data set [2] (Hepatitis C virus, 72 h), the EC50 is less than 0.1 µM.

`CCOc1nc(N)nc2c1ncn2[C@@H]1O[C@H](COP(=O)(N[C@@H](C)C(=O)OC(C)C)OC(C)OC(=O)SCC)[C@@H](O)[C@@]1(C)F` (stereo partly drawn) [Compound 24]: the cytotoxic concentration (CC50) in data set [3] was more than 50 µM. The EC50 in data set [2] (Hepatitis C virus, 72 h) was less than 0.1 µM.

These data come from patent US20130064794A1, “Substituted Carbonyloxymethylphosphoramidate Compounds and Pharmaceutical Compositions for the Treatment of Viral Infections” (IDENIX PHARMACEUTICALS, INC., priority 2011, published 2013).
